Source: publication PMC9563075, “Identification and Structure–Activity Relationship of Recovered Phenolics with Antioxidant and Antihyperglycemic Potential from Sugarcane Molasses Vinasse” (Foods, 2022)
Values joined by “and” are separate entries in the source; they are usually repeats but may differ in a detail not shown here. Equal entries are not always repeated.

System: not listed separately
Test: Oxygen radical scavenging capacity (ORAC) assay
Conditions: Trolox equivalents per 1 g of compound; mean ± SD, n = 3
Protocol: The antioxidant activity of compounds was measured using the ORAC assay according to a previous method. Briefly, 150 μL 8.16 × 10^−5 mM fluorescein working solution was added to the inner wells of a 96-well microplate. Then the plate was incubated at 37 °C for 10 min, after which another 25 μL diluted antioxidants were added using Trolox as standard and 75 mM buffer solution as blank. The plate was shaken every 3 min during the incubation. […] All samples were analyzed in triplicate at three different dilutions. ORAC values were expressed as mean micromoles of Trolox equivalents (TE) per 1 g of the compound.

| SMILES | ORAC value |
| --- | --- |
| COc1cc(C(=O)O)cc(OC)c1O [Compound 13, syringic acid] | 1879.9 ± 44.7 μmol TE/g |
| COc1cc(OC)c(OC2OC(CO)C(O)C(O)C2O)c(OC)c1 [Compound 12, 2,4,6-trimethoxyphenyl-1-O-β-D-glucopyranoside] | 80.2 ± 2.3 μmol TE/g |
| COc1cc(C(=O)Cl)c(O)c(O)c1O [Compound 1, 2,3,4-trihydroxy-5-methoxy benzoyl chloride] | 4094.6 ± 32.1 μmol TE/g |
| O=C(O)c1cc(O)ccc1O [Compound 4, gentisic acid] | 23113.1 ± 1057.9 μmol TE/g |
| COc1ccc(C(=O)O)cc1O [Compound 5, 3-hydroxy-4-methoxybenzoic acid] | 20705.9 ± 835.9 μmol TE/g |
| COc1ccc(OC)cc1 [Compound 14, 1,4-dimethoxybenzene] | 2154.2 ± 183.1 μmol TE/g |
| COc1cc(OC2OC(CO)C(O)C(O)C2O)cc(O)c1OC [Compound 10, 3-hydroxy-4,5-dimethoxyphenyl-β-D-glucopyranoside] | 4177.5 ± 324.2 μmol TE/g |
| Cc1cncc(CC(O)C(O)CO)n1 (stereo not shown) [Compound 9, 2-methyl-6-(2′,3′,4′-trihydroxybutyl)-pyrazine] | 78.0 ± 2.9 μmol TE/g |
| O=C(O)c1ccc(O)cc1 [Compound 7, 4-hydroxybenzoic acid] | 14874.9 ± 599.2 μmol TE/g |
| COc1ccc(OC2OC(CO)C(O)C(O)C2O)cc1OC [Compound 11, 3,4-dimethoxyphenyl-O-β-D-glucopyranoside] | 56.5 ± 2.8 μmol TE/g |
| COc1ccc(O)c(C(=O)O)c1 [Compound 2, 2-hydroxy-5-methoxybenzoic acid] | 32648.1 ± 2181.8 μmol TE/g |
| CC(=O)SC(C)=O [Compound 3, acetyl sulfide] | 1.3 ± 0.2 μmol TE/g |
| COc1cc(C(=O)O)ccc1O [Compound 8, vanillic acid] | 12945.8 ± 1419.3 μmol TE/g |

Same assay, conditions: additional methoxy group(s) in ortho-positions of the p-OH

| SMILES | decrease of ORAC antioxidant activity relative to 4-hydroxybenzoic acid |
| --- | --- |
| COc1cc(C(=O)O)cc(OC)c1O [Compound 13, syringic acid] | 7.91 folds |
| COc1cc(C(=O)O)ccc1O [Compound 8, vanillic acid] | 1.15 folds |

System: HepG2 cells
Test: Cellular antioxidant activity (CAA) assay
Assay type: cell-based
Conditions: HepG2 cells
Protocol: HepG2 cells (ATCC Co., Manassas, VA, USA) were incubated in DMEM with 1% penicillin-streptomycin and 10% FBS and maintained at 37 °C with 5% CO2. The modified methylene blue assay was used to determine cytotoxicity.
The CAA assay was performed, according to Wolfe et al., with slight modification. In brief, 6 × 10^4 HepG2 cells were placed in each well of a black-walled 96-microwell plate. 200 μL of PBS was added to the edge of the plate to prevent the edge effect. After adherence, cells were treated with a range of concentrations of benzoic acid derivatives and a standard (quercetin) containing 50 μM DCFH-DA for 1 h under the same culture condition. After removing the supernatant medium, the cells were washed with or without PBS. Then promptly added 600 μM ABAP into each well except blank groups before reading at 485 nm excitation and 538 nm emission using a multifunctional microplate detector (Molecular Devices, Sunnyvale, CA, USA). The fluorescence values were recorded every 5 min for 1 h. The CAA values were obtained by converting the EC50 values and presented as μmol quercetin equivalents (QE)/100 μmol.

| SMILES | cellular uptake rate (CAA value of the PBS wash/no PBS wash × 100%) |
| --- | --- |
| COc1cc(C(=O)O)ccc1O [Compound 8, vanillic acid] | 71.53% |

Same assay, conditions: HepG2 cells, PBS wash protocol; converted from EC50, quercetin equivalents

| SMILES | CAA value |
| --- | --- |
| COc1cc(C(=O)O)ccc1O [Compound 8, vanillic acid] | 6.18 μmol QE/100 μmol and 6.18 ± 0.09 μmol QE/100 μmol |

Same assay, conditions: HepG2 cells, no PBS wash protocol; converted from EC50, quercetin equivalents

| SMILES | CAA value |
| --- | --- |
| COc1cc(C(=O)O)ccc1O [Compound 8, vanillic acid] | 8.64 μmol QE/100 μmol and 8.64 ± 0.53 μmol QE/100 μmol |

Same assay, conditions: Homo sapiens, HepG2, HepG2 cells, PBS wash protocol

| SMILES | EC50 |
| --- | --- |
| O=c1c(O)c(-c2ccc(O)c(O)c2)oc2cc(O)cc(O)c12 [Quercetin, quercetin, reference compound] | 0.013 mM |
| COc1cc(C(=O)O)ccc1O [Compound 8, vanillic acid] | 0.21 ± 0.00322 mM |

Same assay, conditions: Homo sapiens, HepG2, HepG2 cells, no PBS wash protocol

| SMILES | EC50 |
| --- | --- |
| O=c1c(O)c(-c2ccc(O)c(O)c2)oc2cc(O)cc(O)c12 [Quercetin, quercetin, reference compound] | 0.00509 mM |
| COc1cc(C(=O)O)ccc1O [Compound 8, vanillic acid] | 0.0591 ± 0.00374 mM |

System: α-amylase (EC3.2.1.1)
Test: α-Amylase inhibition assay
Assay type: biochemical
Conditions: not given
Protocol: The inhibition assay with the α-amylase was performed as a previously reported protocol with a slight modification. […] Then, 1 U mL^−1 α-amylase (EC3.2.1.1), soluble starch solution (1%, w/v) and 3,5-dinitrosalicylic acid (DNS) were all dissolved in PBS (50 mM, pH 6.9). The mixed system contained a 500 μL sample or blank solution and 500 μL α-amylase incubated at 37 °C for 10 min, followed by the addition of 500 μL of preheated starch solution into the mixed incubated system to initiate the enzymatic hydrolysis reaction (37 °C, 10 min). Finally, 1 mL of DNS was added to halt the reaction, and the mixture was then allowed to sit in boiling water for 5 min. The absorbance was measured at 540 nm using a microplate reader (SpectraMax 190, Molecular Devices Co., Sunnyvale, CA, USA) at room temperature. The inhibition rate of the samples was calculated using the following equation: Inhibition rate (%)=[1−(Asample−Asample blank)/(Acontrol−Acontrol blank)]×100 where Asample, Asample blank, Acontrol, Acontrol blank represent the absorbance of the presence and absence of enzymes in sample solutions, and the absorbance of the presence and absence of enzymes in buffer solutions. The half-maximal inhibitory concentration (IC50) of each compound was obtained by regression analysis.

| SMILES | α-amylase inhibition (in words) |
| --- | --- |
| O=C(O)c1ccc(O)cc1 [Compound 7, 4-hydroxybenzoic acid] | did not show any inhibition effect |

Same assay, conditions: mean ± SD; samples in 30% (v/v) ethanol-PBS

| SMILES | IC50 |
| --- | --- |
| COc1cc(C(=O)O)cc(OC)c1O [Compound 13, syringic acid] | > 100 mM |
| O=C(O)c1cc(O)ccc1O [Compound 4, gentisic acid] | 36 ± 2.23 mM |
| O=C(O)c1ccc(O)cc1 [Compound 7, 4-hydroxybenzoic acid] | > 100 mM |
| COc1ccc(O)c(C(=O)O)c1 [Compound 2, 2-hydroxy-5-methoxybenzoic acid] | 40.5 ± 0.44 mM |
| COc1cc(C(=O)O)ccc1O [Compound 8, vanillic acid] | > 100 mM |

Molecular target: α-glucosidase (EC3.2.1.20)
Test: α-Glucosidase inhibition assay
Assay type: biochemical
Conditions: mean ± SD; samples in 30% (v/v) ethanol-PBS
Protocol: The inhibition assay with the α-glucosidase was carried out as a previously described protocol. […] The incubated system contained 50 μL of samples and 100 μL of the α-glucosidase solution was added to a 96-well plate at 37 °C for 10 min. Then, 50 μL of the substrate pNP-α-G was added to start the reaction at 37 °C. After 10 min, 100 μL of 1 M Na2CO3 solution was added to inactivate α-glucosidase and halt the generation of substrates, and the absorbance was read at 405 nm with the micro-plate reader (SpectraMax 190, Molecular Devices Co., Sunnyvale, CA, USA). The percentage of inhibition and the values of IC50 of samples were calculated by the same equation as α-amylase inhibition assay.

| SMILES | IC50 |
| --- | --- |
| COc1cc(C(=O)O)cc(OC)c1O [Compound 13, syringic acid] | 20.3 ± 0.39 mM |
| O=C(O)c1cc(O)ccc1O [Compound 4, gentisic acid] | 30.5 ± 1.02 mM |
| O=C(O)c1ccc(O)cc1 [Compound 7, 4-hydroxybenzoic acid] | 34.1 ± 1.51 mM |
| COc1ccc(O)c(C(=O)O)c1 [Compound 2, 2-hydroxy-5-methoxybenzoic acid] | 26.1 ± 0.67 mM |
| COc1cc(C(=O)O)ccc1O [Compound 8, vanillic acid] | 29.7 ± 0.33 mM |

System: not listed separately
Test: Dissolution in 30% (v/v) ethanol-water solvent system
Assay type: physicochemical
Conditions: high-concentration

| SMILES | solubility in 30% (v/v) ethanol-water system |
| --- | --- |
| COc1ccc(C(=O)O)cc1O [Compound 5, 3-hydroxy-4-methoxybenzoic acid] | cannot be dissolved |
